Measured values: patent publication US12622890B2, “Use of the active compound in the prevention or treatment of ovarian dysfunction diseases” (INSTITUTE OF BIOPHYSICS, CHINESE ACADEMY OF SCIENCES, priority 2022, dated 2026)

Columns and labels:
[1] = Body weight of POI model mice before modeling, after modeling and after treatment; type: in vivo; conditions: for Body weight before modeling: D 0, 100 mg/kg/d oral; for Body weight after modeling: D 7, 100 mg/kg/d oral; for Body weight after treatment: D 13, 100 mg/kg/d oral
Procedure: Animal model establishment: A total of 34 C57 female mice (8-week-old) were selected and intraperitoneally injected with the ratio of 120 mg/kg cyclophosphamide (SIGMA) and 30 mg/kg Busulfan (Aladdin) once a day for 1 week at the dose of 0.1 mL/10 g to establish the model of POI.
Grouping: 34 POI model mice were randomly divided into four groups: sodium fumarate (SF) treatment group (n=9), hyodeoxycholic acid (HDCA) treatment group (n=8), sodium fumarate plus hyodeoxycholic acid (mass ratio 1:1) combination (SF+HDCA) treatment group (n=8) and normal saline (Vehicle) group (n=9). Mice in the SF group were given oral administration of SF at the ratio of 100 mg/kg/d body weight, mice in the HDCA group were given oral administration of HDCA at the ratio of 100 mg/kg/d body weight, and mice in the combination group were given oral administration of SF and HDCA at the ratio of 100 mg/kg/d body weight. SF and HDCA were dissolved with 0.9% normal saline when used. Mice in the vehicle group were given the same amount of normal saline orally. All the mice were treated consecutively for 12 days.
Body weight were recorded at three time points, before modeling (at the beginning of treatment), after modeling and after treatment.
Animal model establishment: A total of 24 C57 mice (8-week-old) were selected and intraperitoneally injected with the ratio of 120 mg/kg cyclophosphamide and 30 mg/kg Busulfan once a day for 1 week at the dose of 0.1 mL/10 g to establish the model of POI.
Grouping: 24 POI model mice were randomly divided into four groups: dimethyl fumarate (DMF) treatment group (n=5), hyodeoxycholic acid (HDCA) treatment group (n=6), dimethyl fumarate plus hyodeoxycholic acid (mass ratio=1:1) combination (DMF+HDCA) treatment group (n=7) and normal saline (Vehicle) group (n=6). Mice in the DMF treatment group were orally administrated at the ratio of 100 mg/kg/d body weight. Mice in the HDCA treatment group were given oral administration of HDCA at the ratio of 100 mg/kg/d body weight, and mice in the combination group were given oral administration of DMF and HDCA at the ratio of 100 mg/kg/d body weight. Once daily, DMF and HDCA were dissolved in 0.9% normal saline when used. Mice in normal saline group were given the same amount of normal saline orally every day. The drug was administered for 12 days.
Body weight were recorded at three time points, before modeling (at the beginning of treatment, the 0th day), after modeling (the 7th day) and after treatment (the 13th day).
The body weight of POI model mice of each group was measured before modeling, after modeling and after treatment.

POI mice [2] = experiment: Serum FSH level in POI mice; type: in vivo; conditions: for FSH: serum, after 12 days 100 mg/kg/d oral
Excerpt: (§1) Biomarkers mentioned herein, such as follicle stimulating hormone (FSH), estrogen (e.g., E2), and superoxide dismutase (SOD), malondialdehyde (MDA), relative reactive oxygen species (ROS), and lactate dehydrogenase (LDH), etc., can be detected using methods commonly known in the field. Detection methods typically cover methods that quantify the level of a biomarker in a sample (quantitative methods). Which of the following methods are suitable for qualitative and/or quantitative detection of biomarkers is generally known to those skilled in the field. Samples can be conveniently measured, for example for proteins using immunoassays such as ELISA, RIA, etc., which are commercially available.
(§2) After 12 days of administration, half of the mice in each group were sacrificed, and their blood was collected and kept still. The serum was separated after centrifugation at 4500 rpm and stored in a refrigerator at −80° C. for future use to measure levels of follicle stimulating hormone, estrogen, and the indexes of oxidative stress such as superoxide dismutase (SOD) and malondial dehyde (MDA).
as §2, with “kept in” for “kept”, “levals” for “levels”, “malondialdehyde” for “malondial dehyde”
• 1. Hormone levels in mice blood of Example 1 are measured in this embodiment.

POI mice [3] = experiment: Serum estradiol (E2) level in POI mice; type: in vivo; conditions: for E2: serum, after 12 days 100 mg/kg/d oral
Excerpt: as §1, §2
as §2, with “kept in” for “kept”, “levals” for “levels”, “malondialdehyde” for “malondial dehyde”

POI mice [4] = experiment: Serum superoxide dismutase (SOD) level, oxidative stress; type: in vivo
Excerpt: as §1, §2
as §2, with “kept in” for “kept”, “levals” for “levels”, “malondialdehyde” for “malondial dehyde”
(§3) The oxidative stress hypothesis believes that the reduction of antioxidant components in the body leads to the weakening of the ability to remove free radicals, which leads to oxidative damage of biological macromolecules, and the imbalance of cellular oxidative and antioxidant functions, which leads to oxidative stress, and then leads to disease and aging. Oxygen free radicals act on unsaturated fatty acids of lipids to generate lipid peroxides, including malondialdehyde (MDA) and so on. The antioxidant defense system of scavenging free radicals includes superoxide dismutase (SOD) and so on. Recently, oxidative stress has been reported to be associated with ovarian aging and POI in primates. Therefore, this embodiment examined the effects of DMF, HDCA, and DMF+HDCA on oxidative stress in mice with premature ovarian failure, and the results are shown in Table 5, FIGS. 9 to 12.

POI mice [5] = experiment: Serum relative reactive oxygen species (ROS) level; type: in vivo
Excerpt: as §1, §3

POI mice [6] = experiment: Serum lactate dehydrogenase (LDH) level; type: in vivo
Excerpt: as §1

ovarian tissues = experiment: RNA transcription level sequencing of ovarian tissues, differentially expressed genes; type: in vivo, mice; conditions: ovarian tissue RNA sequencing, FC>2, Q<0.05
Procedure: Mice were sacrificed after various treatments, and ovarian tissues were taken, snap-frozen in liquid nitrogen, stored at −80° C., and sent to Annoroad for RNA transcription level sequencing. Bioinformatics analysis and mapping were performed on the sequencing results. […] The differential genes of the three treatment groups were intersectioned. […] These differential gene sets were then subjected to Gene Ontology function (GO) enrichment (FC>2, Q<0.05) (FIG. 16) and signaling pathway (KEGG) analysis mapping (FIG. 17), respectively.

POI model mice = experiment: Estrous cycle observation by vaginal smear cytology in POI model mice; type: in vivo
[7] = Example 2, FIG. 8, not statistically significant
[8] = serum, POI mice after treatment
[9] = Example 2, during drug administration, FIG. 5B

## C[C@H](CCC(=O)O)[C@H]1CC[C@H]2[C@@H]3C[C@H](O)[C@@H]4C[C@H](O)CC[C@]4(C)[C@H]3CC[C@]12C [HDCA, hyodeoxycholic acid, reference compound]
[1]; Example 1 POI mice
  Body weight before modeling: 18.79 ± 0.80 g
  Body weight after modeling: 17.69 ± 1.03 g
  Body weight after treatment: 17.96 ± 1.20 g
[1]; Example 1 POI mice, FIG. 2A
  Weight recovery after chemotherapy: significantly beneficial
[1]; Example 2 POI mice
  Body weight before modeling: 18.32 ± 1.61 g
  Body weight after modeling: 16.31 ± 2.02 g
  Body weight after treatment: 17.10 ± 2.24 g
[1]; Example 2 POI mice, FIG. 2B
  Weight recovery after chemotherapy: significantly beneficial
POI mice [2]; Example 1, FIG. 6
  Serum FSH level compared with the normal saline group: decreasing trend
POI mice [2]; [7]
  Serum FSH level compared with the normal saline group: certain decreasing trend
POI mice [2]; Example 1 POI mice
  FSH: 4.85 ± 2.34 mIU/mL
POI mice [2]; Example 2 POI mice
  FSH: 1.65 ± 0.76 mIU/mL
POI mice [3]; Example 1, FIG. 7
  Serum E2 level compared with the normal saline group: tendency to increase
POI mice [3]; [7]
  Serum E2 level compared with the normal saline group: certain tendency to decrease
POI mice [3]; Example 1 POI mice
  E2: 49.69 ± 7.11 pg/mL
POI mice [3]; Example 2 POI mice
  E2: 42.96 ± 14.28 pg/mL
POI mice [4]; FIG. 9, difference not significant
  Activity of SOD compared with the normal saline group: increased
POI mice [4]; [8]
  SOD: 14.59 ± 5.65 U/mL
POI mice [5]; FIG. 11
  ROS levels compared with the normal saline group: significantly reduced
POI mice [5]; relative ROS level in serum, POI mice after treatment
  ROS: 4.589 ± 0.599
POI mice [6]; FIG. 12
  Activity of LDH compared with the normal saline group: reduced to some extent
POI mice [6]; [8]
  LDH: 2821.58 ± 318.30 U/mL
Ovarian tissues
  Number of genes down-regulated compared with the control group: 4749 genes
  Number of genes up-regulated compared with the control group: 1898 genes
POI model mice; Example 2
  Effect on mice with premature ovarian failure (conclusion from estrous cycle): preventive and therapeutic effects
POI model mice; [9]
  Average rate of diestrum (D) in estrous cycle: 52.08%
  Average rate of estrous (E) stage in estrous cycle: 6.25%
  Average rate of metestrum (M) in estrous cycle: 12.50%
  Average rate of proestrous (P) in estrous cycle: 29.17%
POI model mice; Example 2, 12 days observation, DMF n=5, HDCA n=6, DMF and HDCA n=7
  Number of mice with estrous cycle recovered: 3 mice
